Experimental data taken from patent US20250339409A1, “USES OF PAN BET INHIBITORS” (VYNE THERAPEUTICS INC., priority 2021, published 2025).
Several values for one entry are separate records, joined by “and”; a condition that tells them apart may be missing. Identical values can stand only once.

Tests used:
TRP-1 = test: RHE vitiligo model: melanocyte localization after TRP-1 immunostaining; type: cell-based, human; details: for Mean per RHE (%): RHE1-3
Description: TRP-1 (tyrosinase related protein-1) is a melanocyte specific protein and a member of the tyrosinase gene family which also includes tyrosinase. It is very often used as specific marker of melanocytes. To visualize and quantify the melanocytes within the epidermis, sections of epidermis (6 μm thick) prepared from epidermis embedded in paraffin are used for TRP-1 immunostaining.
After deparaffination and re-hydration, antigen unmasking is performed by heating in citrate ph6 buffer. Samples are then saturated with goat serum, in order to avoid unspecific labelling.
Samples are incubated overnight, at 4° C., with a primary antibody raised against human TRP-1 (Abcam; Ab235447). After washing, the samples are incubated (for 30 minutes, at room temperature) with a secondary antibody anti-rabbit coupled to Alexa Fluor 488 dye (Thermo Fisher Scientific; A-11008). Samples are then incubated with DAPI or 4′,6′-diamidino-2-phenylindole (Thermo Fisher Scientific, D1306), a fluorescent molecule able of binding to the adenine and thymine bases of DNA and slides are mounted with specific medium, before taking the images. For each tissue/sample, 1 slide section is used to make 3 images. Images are taken using a Nikon Eclipse (Ni-E) photomicroscope coupled to a numerical camera (DS-Ri2). Quantification of the protein is performed with NIS-Element AR software (Nikon). The detection thresholds are firstly determined, using the most marked slices, in order to avoid saturation of detection. For each image, a region of interest (ROI) is delimited manually (including only the basal layers of epidermis which are supposed to contain the melanocytes) and its surface was measured. The software then measures the marked area within the delimited area, in number of pixels. The mean intensity of the marked surface multiplied by the “marked surface” determines the staining for the given ROI. This value is then normalized for a given surface by dividing the staining value by the surface of the ROI.
Formulations containing four doses of BETi1 the BETi1 vehicle (placebo), were evaluated in RHE TNF-α/IFN-γ vitiligo model as described in Experimental section Method G and representative images of RHE after TRP-1 staining are shown in FIG. 7A and respective quantification with and without normalization are shown in Table 19 and Table 20 and FIGS. 7B and FIG. 7C respectively. The stimulation with the cytokine cocktail (TNF-α and IFN- ? ) in accordance with Part A and B, reduced the expression of TRP-1 and thus the abundance of melanocytes in the basal layers of the RHE, confirming the melanocytorhagy. In the model, stimulated treated with the vehicle induced a significant […] of TRP-1 abundance as compared to the stimulated untreated control. Without being bound by any theory the barrier effect provided by petrolatum in the vehicle, which increases skin hydration, has some effect on retention of melanocytes in the basal layer. […] A dose response could clearly be observed with the BETi1 formulation, with a tendency to the increase for the dose of 0.1% and with the two last concentrations being not significant. The effects of the ruxolitinib cream at 1% could not be assessed given that the sections have detached from the glass slides during the immunostaining process (probably without being bound by any theory may be due to the bad structure of the epidermis).

[1] = system: melanin in basal layers of RHE; test: RHE vitiligo model: melanin content and localization by Fontana Masson staining; type: cell-based, human
Source text: Melanin deposition on 6 μm paraffin sections of each epidermis (n=3) are highlighted through staining with Fontana Masson reagents (VWR—VWRK641295, VWRK641311; Klinipath—641215). Slides are mounted with specific medium and examined with a Nikon Eclipse (Ni-E) photomicroscope coupled to a numerical camera (DS-Ri2)
For the melanin quantification, three images of each epidermis are taken and analysed using the NIS-Element AR software (Nikon). For the quantification of melanin, a region of interest (ROI) is first defined and measured in the epidermis. This region includes only the basal layers. Then, two measures are taken by the software in this ROI. The first one represents the labelled surface on the ROI, and thus the area occupied by the melanin in the ROI. The second one corresponds to the global intensity of the staining in the ROI, reflecting a lighter or darker melanin. The relative quantification of melanin in the ROI is then performed by multiplying these two measures. To normalize the results to a given surface, this value was then divided by the surface of the ROI.
Formulations containing four doses of BETi1 the BETi1 vehicle (placebo), were evaluated in RHE TNF-α/IFN-γ vitiligo model as described Experimental section Method F and representative images of […] epidermis sections are shown in FIG. 6A-G. The images according to this method are consistent with the images with H/E stained epidermis sections and shown in FIG. 4A-H.
Results of the quantification of melanin in basal layers of epidermis stimulated or not with the cytokine cocktail to induce melanocytorhagy and treated with the test items are shown in FIG. 6H. The results are expressed with normalization to the surface of region of interest (ROI) corresponding to the 2-3 basal layers of the RHEs. […] As for TRP-1 staining, the effects of the ruxolitinib cream at 1% on melanin content could not be assessed given that the sections have detached from the glass slides during the staining process (probably without being bound by any theory may be due to the bad structure of the epidermis).

[2] = BETi1 0.001%, stimulated RHE, without normalization to ROI
[3] = BETi1 1%, stimulated RHE, with normalization to ROI
[4] = BETi1 1%, stimulated RHE, without normalization to ROI
[5] = BETi1 10.001% [sic], stimulated RHE, with normalization to ROI

Compound: Cn1cc(-c2cccc(O)c2Oc2ccccc2)c2cc[nH]c2c1=O [BETi1]
- Mean per condition (%) (TRP-1; [2]): 24%
- Mean per RHE (%) (TRP-1; [2]): 21.6% and 27.0% and 22.1%
- Mean per condition (%) (TRP-1; BETi1 0.01%, stimulated RHE, with normalization to ROI): 15%
- Mean per condition (%) (TRP-1; BETi1 0.01%, stimulated RHE, without normalization to ROI): 20%
- Mean per condition (%) (TRP-1; BETi1 0.1%, stimulated RHE, with normalization to ROI): 92%
- Mean per condition (%) (TRP-1; BETi1 0.1%, stimulated RHE, without normalization to ROI): 120%
- Mean per condition (%) (TRP-1; [3]): 149%
- Mean per RHE (%) (TRP-1; [3]): 169% and 120% and 158%
- Mean per condition (%) (TRP-1; [4]): 192%
- Mean per RHE (%) (TRP-1; [4]): 220.8% and 151.1% and 203.4%
- Mean per condition (%) (TRP-1; [5]): 17%
- Mean per RHE (%) (TRP-1; [5]): 18% and 19% and 14%
- TRP-1 in the basal layers (TRP-1; BETi1 formulation at 1%, stimulated RHE): TRP-1 is significantly increased in the basal layers
- TRP-1 % staining relative to stimulated control, Mean per RHE (%) (TRP-1; Stimulated + BETi1 0.001%): 6% and 8%
- TRP-1 % staining relative to stimulated control, Mean per condition (%) (TRP-1; Stimulated + BETi1 0.001%): 7%
- TRP-1 % staining relative to stimulated control, Mean per condition (%) (TRP-1; Stimulated + BETi1 0.01%): 30%
- TRP-1 % staining relative to stimulated control, Mean per condition (%) (TRP-1; Stimulated + BETi1 0.1%): 227%
- TRP-1 % staining relative to stimulated control, Mean per condition (%) (TRP-1; Stimulated + BETi1 1%): 292%
- melanin retained relative to unstimulated control ([1]; basal layers of RHE): approximately 75%
- residual melanin levels, % of stimulated/untreated control ([1]; basal layers of RHE): about 367%
- melanin content in the basal layers ([1]; stimulated RHE, vs vehicle): significantly increase the melanin content in the basal layers
